How the values were obtained:
[1] = target: T1, IN^PFV-viral DNA interaction (Human spumaretrovirus, UniProt P14350); test: IN-viral DNA interaction by steady-state fluorescence anisotropy of Fl-DNA with increasing drug concentrations; type: binding, prototype foamy virus (PFV); conditions: 400 nM IN^PFV, 4 nM Fl-PFV^CAAT, 10 mM Mg2+, up to 20 µM drug; means INSTI did not prevent IN-DNA interactions
T1 construct: The full-length wt IN^PFV, the three single mutants of the catalytic triad; His; made in house; host or cells: E. coli BL21-CodonPlus (DE3)-RIPL
Description: Their incapability to prevent or disrupt IN-viral DNA complexes was consistently observed over the whole concentration range, regardless of the INSTI tested (Supplementary Fig. S7).
(§1) IN^PFV binding to DNA was measured by fluorescence anisotropy on a Beacon Instrument (Panvera, Madison, WI, USA) as previously described[25],[51], using a double-stranded 21-mer Fl-labeled DNA mimicking the PFV U5 LTR end also referred to as DNA#1 in Table 1 (labeled at the 5′-end of the reactive strand). IN binding to Fl-PFV^CAAT (or Fl-DNA#1) was compared to the binding to other DNA sequences (Fl-DNA#8 #9 #13). DNA annealing was obtained by mixing equimolar amounts of complementary strands in buffer A, heating to 85 °C for 5 min and slow cooling to 25 °C. DNA-binding experiments were performed at 25 °C in buffer A.
(§2) Figure S7. Differential effect of INSTI and INBI compounds on the INPFV-viral DNA interaction.
(§3) The formation of IN-DNA complexes was measured by steady-state fluorescence anisotropy using 400 nM INPFV and 4 nM Fl-PFVCAAT (also named Fl-DNA#1) in the presence of 10 mM Mg2+ and […]
(§4) In each plot, the starting r value (≈ 0.20) corresponds to the typical value found at saturating concentrations of IN (see Fig. S6).
(§5) The INBI compound FZ41, a member of the styrylquinoline family of inhibitors, was used as a control […]
(§6) show mean ± SD values from two independent experiments. […]

IN = conditions: INSTIs; cited from earlier work
wt IN^PFV (IN; WT) = target: T2, wt IN^PFV (IN; WT) (Human spumaretrovirus, UniProt P14350); test: Inhibition of IN-viral DNA binding by steady-state fluorescence anisotropy of 4 nM Fl-PFV^CAAT with 400 nM IN, 10 mM Mg2+, 25 °C.; type: biochemical; conditions: n = 2; read-out: IC50 (IN-DNA interaction)
T2 construct: gene pol; full-length, His-tagged, expressed in E. coli BL21-CodonPlus (DE3)-RIPL
Description: as §2, §3, §4, §5, §6, §1

COc1cc2c(cc1Cc1cccc(Cl)c1F)c(=O)c(C(=O)O)cn2[C@H](CO)C(C)C [EVG, elvitegravir]
r value of Fl-DNA (IN-DNA complex) on increasing INSTI concentration [1]: remained constant
IC50 values (IN): low-nanomolar range

COc1cc(/C=C/c2ccc3ccc(C(=O)O)c(O)c3n2)cc(O)c1O [FZ41, FZ41 (styrylquinoline family INBI compound)]
IC50 (wt IN^PFV (IN; WT)): ~800 nM

Cc1nnc(C(=O)NC(C)(C)c2nc(C(=O)NCc3ccc(F)cc3)c(O)c(=O)n2C)o1 [RAL, Raltegravir]
r value of Fl-DNA (IN-DNA complex) on increasing INSTI concentration [1]: remained constant
IC50 values (IN): low-nanomolar range
